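A five-concentration, 48-hour dose response in 96-well plates underlies each endpoint, interpolated linearly between surrounding concentrations. At the GI50, growth is halved.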 Calls of active or inactive are those of the source. No stated cut-off is given here; in the data, active = GI50 up to about 1.1 µM and inactive = higher.
Key:
Assay in all cases: growth of human tumour cells (NCI), 48 h
Hs-578T = system: Hs-578T
U-251 = system: U-251
LOX IMVI = system: LOX IMVI
OVCAR-3 = system: OVCAR-3
EKVX = system: EKVX
A498 = system: A498
CAKI-1 = system: CAKI-1
RPMI-8226 = system: RPMI-8226
PC-3 = system: PC-3
MDA-MB-231 = system: MDA-MB-231
SK-MEL-5 = system: SK-MEL-5
HT-29 = system: HT-29
SN12C = system: SN12C
SK-MEL-28 = system: SK-MEL-28
SF-295 = system: SF-295
HCT-15 = system: HCT-15
SF-268 = system: SF-268
HCC 2998 = system: HCC 2998
ACHN = system: ACHN
MDA-MB-435 = system: MDA-MB-435
HOP-62 = system: HOP-62
OVCAR-8 = system: OVCAR-8
SK-OV-3 = system: SK-OV-3
HL-60 = system: HL-60
HCT-116 = system: HCT-116
IGROV-1 = system: IGROV-1
786-0 = system: 786-0
SR = system: SR
SW-620 = system: SW-620
HOP-92 = system: HOP-92
KM12 = system: KM12
NCI/ADR-RES = system: NCI/ADR-RES
T47D = system: T47D
OVCAR-5 = system: OVCAR-5
TK-10 = system: TK-10
OVCAR-4 = system: OVCAR-4
DU-145 = system: DU-145
RXF 393 = system: RXF 393
SNB-75 = system: SNB-75
M14 = system: M14
UACC-257 = system: UACC-257
MDA-N = system: MDA-N
A549 = system: A549
NCI-H522 = system: NCI-H522
K562 = system: K562
Malme-3M = system: Malme-3M
MCF7 = system: MCF7
UACC-62 = system: UACC-62
SK-MEL-2 = system: SK-MEL-2
UO-31 = system: UO-31
NCI-H226 = system: NCI-H226
MOLT-4 = system: MOLT-4
CCRF-CEM = system: CCRF-CEM
NCI-H23 = system: NCI-H23
NCI-H460 = system: NCI-H460
COLO 205 = system: COLO 205
BT-549 = system: BT-549
SF-539 = system: SF-539
SNB-19 = system: SNB-19

CC(C)=CCc1c(O)c(CC=C(C)C)c2oc(-c3ccc(O)cc3O)c(CC=C(C)C)c(=O)c2c1O
GI50 (Hs-578T): 7.76 µM (inactive)
GI50 (U-251): 9.12 µM (inactive)
GI50 (LOX IMVI): 5.26 µM (inactive)
GI50 (OVCAR-3): 7.1 µM (inactive)
GI50 (EKVX): 12.4 µM (inactive)
GI50 (A498): 13.8 µM (inactive)
GI50 (CAKI-1): 12.7 µM (inactive)
GI50 (RPMI-8226): 3.43 µM (inactive)
GI50 (PC-3): 6.46 µM (inactive)
GI50 (MDA-MB-231): 12.6 µM (inactive)
GI50 (SK-MEL-5): 10.8 µM (inactive)
GI50 (HT-29): 7.96 µM (inactive)
GI50 (SN12C): 8.59 µM (inactive)
GI50 (SK-MEL-28): 12.2 µM (inactive)
GI50 (SF-295): 7.45 µM (inactive)
GI50 (HCT-15): 5.47 µM
GI50 (SF-268): 9.16 µM (inactive)
GI50 (HCC 2998): 4.06 µM (inactive)
GI50 (ACHN): 7.62 µM (inactive)
GI50 (MDA-MB-435): 4.52 µM (inactive)
GI50 (HOP-62): 9.06 µM (inactive)
GI50 (OVCAR-8): 4.88 µM (inactive)
GI50 (SK-OV-3): 13.3 µM (inactive)
GI50 (HL-60): 7.06 µM (inactive)
GI50 (HCT-116): 4.97 µM (inactive)
GI50 (IGROV-1): 10.6 µM (inactive)
GI50 (786-0): 8.91 µM (inactive)
GI50 (SR): 2.34 µM (inactive)
GI50 (SW-620): 6.1 µM (inactive)
GI50 (HOP-92): 8.26 µM (inactive)
GI50 (KM12): 5.57 µM (inactive)
GI50 (NCI/ADR-RES): 12.3 µM (inactive)
GI50 (T47D): 3.97 µM (inactive)
GI50 (OVCAR-5): 14.8 µM (inactive)
GI50 (TK-10): 8.85 µM (inactive)
GI50 (OVCAR-4): 5.51 µM (inactive)
GI50 (DU-145): 12.4 µM (inactive)
GI50 (RXF 393): 4.99 µM (inactive)
GI50 (SNB-75): 10.6 µM (inactive)
GI50 (M14): 8.83 µM (inactive)
GI50 (UACC-257): 12.5 µM (inactive)
GI50 (MDA-N): 7.82 µM (inactive)
GI50 (A549): 5.4 µM (inactive)
GI50 (NCI-H522): 7.31 µM (inactive)
GI50 (K562): 4.05 µM (inactive)
GI50 (Malme-3M): 16.3 µM (inactive)
GI50 (MCF7): 3.98 µM (inactive)
GI50 (UACC-62): 7.14 µM (inactive)
GI50 (SK-MEL-2): 3.66 µM (inactive)
GI50 (UO-31): 8.22 µM (inactive)
GI50 (NCI-H226): 23 µM (inactive)
GI50 (MOLT-4): 3.33 µM (inactive)
GI50 (CCRF-CEM): 2.1 µM (inactive)
GI50 (NCI-H23): 5.56 µM (inactive)
GI50 (NCI-H460): 4.48 µM (inactive)
GI50 (COLO 205): 27.1 µM (inactive)
GI50 (BT-549): 7.98 µM (inactive)
GI50 (SF-539): 16.3 µM (inactive)
GI50 (SNB-19): 12.6 µM (inactive)

Cc1ccc(N2CN3OC(=O)N(c4ccccc4)[C@@]3(c3ccccc3)C2)cc1
GI50 (Hs-578T): 87.9 µM (inactive)
GI50 (U-251): 30.5 µM (inactive)
GI50 (LOX IMVI): 37.5 µM (inactive)
GI50 (OVCAR-3): 19.4 µM (inactive)
GI50 (EKVX): 45.7 µM (inactive)
GI50 (A498): 32.1 µM (inactive)
GI50 (CAKI-1): 33.3 µM (inactive)
GI50 (RPMI-8226): 45.6 µM (inactive)
GI50 (PC-3): 34.2 µM (inactive)
GI50 (MDA-MB-231): 26.9 µM (inactive)
GI50 (SK-MEL-5): 31.3 µM (inactive)
GI50 (HT-29): 25.1 µM (inactive)
GI50 (SN12C): 42.2 µM (inactive)
GI50 (SK-MEL-28): > 100 µM (inactive)
GI50 (SF-295): 17.5 µM (inactive)
GI50 (HCT-15): 23.2 µM
GI50 (SF-268): 50.7 µM (inactive)
GI50 (HCC 2998): 24.9 µM (inactive)
GI50 (ACHN): 39.4 µM (inactive)
GI50 (MDA-MB-435): 26.4 µM (inactive)
GI50 (HOP-62): 36.1 µM (inactive)
GI50 (OVCAR-8): 57 µM (inactive)
GI50 (SK-OV-3): 40.6 µM (inactive)
GI50 (HL-60): 26.2 µM (inactive)
GI50 (HCT-116): 29.2 µM (inactive)
GI50 (IGROV-1): 33 µM (inactive)
GI50 (786-0): 44.5 µM (inactive)
GI50 (SR): 16 µM (inactive)
GI50 (SW-620): 80 µM (inactive)
GI50 (HOP-92): 16.9 µM (inactive)
GI50 (KM12): 33.9 µM (inactive)
GI50 (NCI/ADR-RES): 29 µM (inactive)
GI50 (T47D): 14.2 µM (inactive)
GI50 (OVCAR-5): > 100 µM (inactive)
GI50 (TK-10): 50.5 µM (inactive)
GI50 (OVCAR-4): 34.2 µM (inactive)
GI50 (DU-145): 48.4 µM (inactive)
GI50 (RXF 393): 25.1 µM (inactive)
GI50 (SNB-75): 36.6 µM (inactive)
GI50 (M14): 65.5 µM (inactive)
GI50 (UACC-257): 26.6 µM (inactive)
GI50 (MDA-N): 33.6 µM (inactive)
GI50 (A549): 36.5 µM (inactive)
GI50 (NCI-H522): 10.1 µM (inactive)
GI50 (K562): 22.3 µM (inactive)
GI50 (Malme-3M): 34 µM (inactive)
GI50 (MCF7): 33.7 µM (inactive)
GI50 (UACC-62): 21.2 µM (inactive)
GI50 (SK-MEL-2): 19.9 µM (inactive)
GI50 (UO-31): 57.4 µM (inactive)
GI50 (NCI-H226): 27 µM (inactive)
GI50 (MOLT-4): 35.1 µM (inactive)
GI50 (CCRF-CEM): 34.4 µM (inactive)
GI50 (NCI-H23): 24.2 µM (inactive)
GI50 (NCI-H460): 21.6 µM (inactive)
GI50 (COLO 205): 36.1 µM (inactive)
GI50 (BT-549): 50.4 µM (inactive)
GI50 (SF-539): 29.4 µM (inactive)
GI50 (SNB-19): 92 µM (inactive)
